In the NIST ThermoML archive (doi:10.1021/acs.jced.8b00692):
Numbers after ± are expanded uncertainties.

Experiment: xn = mol fraction of the nth substance listed
Conditions: 102 kPa, Liquid; for viscosity: Concentric cylinders viscometry; for speed of sound: Frequency=3 MHz, Single path-length method; for mass density: Vibrating tube method

CCCCCCCCCCC1CCCCC1 [decylcyclohexane] + CCCCCCCCCCCCCCCC
Conditions	mass density [kg/m3]	speed of sound [m/s]	viscosity [mPa·s]
293.15 K, x1 = 0.2	781.98 ± 0.81	1366.2 ± 0.7	3.73 ± 0.03
293.15 K, x1 = 0.4	790.75 ± 0.81	1375.8 ± 0.7	4.03 ± 0.02
293.15 K, x1 = 0.4999	795.26 ± 0.81	1380.7 ± 0.7	4.19 ± 0.02
293.15 K, x1 = 0.6008	799.82 ± 0.81	1385.6 ± 0.8	4.36 ± 0.03
293.15 K, x1 = 0.7237	805.48 ± 0.81	1392 ± 0.8	4.63 ± 0.02
293.15 K, x1 = 1	818.55 ± 0.81	1406.7 ± 0.9	5.32 ± 0.03
303.15 K, x1 = 0.2	775.08 ± 0.81	1329 ± 0.7	2.95 ± 0.02
303.15 K, x1 = 0.4	783.89 ± 0.81	1338.4 ± 0.7	3.16 ± 0.02
303.15 K, x1 = 0.4999	788.42 ± 0.81	1343.3 ± 0.7	3.29 ± 0.02
303.15 K, x1 = 0.6008	792.99 ± 0.81	1348.3 ± 0.7	3.41 ± 0.02
303.15 K, x1 = 0.7237	798.67 ± 0.81	1354.7 ± 0.8	3.6 ± 0.02
303.15 K, x1 = 1	811.78 ± 0.81	1369.4 ± 0.9	4.09 ± 0.02
313.15 K, x1 = 0.2	768.19 ± 0.81	1292.6 ± 0.7	2.39 ± 0.02
313.15 K, x1 = 0.4	777.04 ± 0.81	1301.9 ± 0.7	2.54 ± 0.02
313.15 K, x1 = 0.4999	781.59 ± 0.81	1306.8 ± 0.7	2.64 ± 0.02
313.15 K, x1 = 0.6008	786.18 ± 0.81	1311.8 ± 0.7	2.73 ± 0.02
313.15 K, x1 = 0.7237	791.88 ± 0.81	1318.3 ± 0.8	2.87 ± 0.02
313.15 K, x1 = 1	805.02 ± 0.81	1333 ± 0.9	3.23 ± 0.02
323.15 K, x1 = 0.2	761.3 ± 0.81	1256.8 ± 0.7	1.97 ± 0.01
323.15 K, x1 = 0.4	770.2 ± 0.81	1266.2 ± 0.7	2.09 ± 0.02
323.15 K, x1 = 0.4999	774.76 ± 0.81	1271.1 ± 0.7	2.18 ± 0.02
323.15 K, x1 = 0.6008	779.37 ± 0.81	1276.2 ± 0.7	2.24 ± 0.02
323.15 K, x1 = 0.7237	785.08 ± 0.81	1282.7 ± 0.8	2.34 ± 0.02
323.15 K, x1 = 1	798.27 ± 0.81	1297.5 ± 0.9	2.62 ± 0.02
333.15 K, x1 = 0.2	754.42 ± 0.81	1221.9 ± 0.7	1.65 ± 0.01
333.15 K, x1 = 0.4	763.35 ± 0.81	1231.6 ± 0.7	1.75 ± 0.01
333.15 K, x1 = 0.4999	767.92 ± 0.81	1236.3 ± 0.7	1.81 ± 0.01
333.15 K, x1 = 0.6008	772.55 ± 0.81	1241.5 ± 0.7	1.87 ± 0.02
333.15 K, x1 = 0.7237	778.28 ± 0.81	1248.2 ± 0.8	1.95 ± 0.02
333.15 K, x1 = 1	791.5 ± 0.81	1262.9 ± 0.9	2.16 ± 0.02
343.15 K, x1 = 0.2	747.5 ± 0.8	–	1.42 ± 0.01
343.15 K, x1 = 0.4	756.5 ± 0.8	–	1.48 ± 0.01
343.15 K, x1 = 0.4999	761.3 ± 0.8	–	1.54 ± 0.01
343.15 K, x1 = 0.6008	765.8 ± 0.8	–	1.58 ± 0.01
343.15 K, x1 = 0.7237	771.6 ± 0.8	–	1.64 ± 0.01
343.15 K, x1 = 1	784.8 ± 0.8	–	1.82 ± 0.02
353.15 K, x1 = 0.2	740.7 ± 0.8	–	1.21 ± 0.01
353.15 K, x1 = 0.4	749.7 ± 0.8	–	1.28 ± 0.01
353.15 K, x1 = 0.4999	754.4 ± 0.8	–	1.32 ± 0.01
353.15 K, x1 = 0.6008	759 ± 0.8	–	1.36 ± 0.01
353.15 K, x1 = 0.7237	764.8 ± 0.8	–	1.41 ± 0.01
353.15 K, x1 = 1	778 ± 0.8	–	1.55 ± 0.01
363.15 K, x1 = 0.2	733.7 ± 0.8	–	1.08 ± 0.01
363.15 K, x1 = 0.4	742.8 ± 0.8	–	1.1 ± 0.01
363.15 K, x1 = 0.4999	747.6 ± 0.8	–	1.17 ± 0.01
363.15 K, x1 = 0.6008	752.1 ± 0.8	–	1.18 ± 0.01
363.15 K, x1 = 0.7237	758 ± 0.8	–	1.22 ± 0.01
363.15 K, x1 = 1	771.2 ± 0.8	–	1.34 ± 0.01
373.15 K, x1 = 0.2	726.8 ± 0.8	–	0.926 ± 0.012
373.15 K, x1 = 0.4	735.9 ± 0.8	–	0.979 ± 0.012
373.15 K, x1 = 0.4999	740.7 ± 0.8	–	1.01 ± 0.01
373.15 K, x1 = 0.6008	745.2 ± 0.8	–	1.04 ± 0.01
373.15 K, x1 = 0.7237	751.1 ± 0.8	–	1.07 ± 0.01
373.15 K, x1 = 1	764.4 ± 0.8	–	1.17 ± 0.01

CCCCCC1CCCCC1 [pentylcyclohexane] + CCCCCCCCCCCCCCCC
Conditions	mass density [kg/m3]	speed of sound [m/s]	viscosity [mPa·s]
293.15 K, x1 = 0.2004	777.53 ± 0.81	1354.6 ± 0.7	3.1 ± 0.02
293.15 K, x1 = 0.4	782.39 ± 0.81	1351.9 ± 0.7	2.74 ± 0.02
293.15 K, x1 = 0.4999	785.18 ± 0.81	1350.6 ± 0.8	2.56 ± 0.02
293.15 K, x1 = 0.5999	788.23 ± 0.81	1349.4 ± 0.8	2.38 ± 0.02
293.15 K, x1 = 0.8006	795.35 ± 0.81	1347.2 ± 0.9	2.03 ± 0.02
293.15 K, x1 = 1	804.11 ± 0.82	1345.9 ± 1	1.7 ± 0.02
303.15 K, x1 = 0.2004	770.57 ± 0.81	1317.2 ± 0.7	2.49 ± 0.02
303.15 K, x1 = 0.4	775.39 ± 0.81	1314.4 ± 0.7	2.22 ± 0.02
303.15 K, x1 = 0.4999	778.15 ± 0.81	1313 ± 0.8	2.08 ± 0.02
303.15 K, x1 = 0.5999	781.16 ± 0.81	1311.6 ± 0.8	1.95 ± 0.02
303.15 K, x1 = 0.8006	788.18 ± 0.82	1309 ± 0.9	1.68 ± 0.02
303.15 K, x1 = 1	796.8 ± 0.82	1306.4 ± 1	1.42 ± 0.01
313.15 K, x1 = 0.2004	763.62 ± 0.81	1280.5 ± 0.7	2.04 ± 0.02
313.15 K, x1 = 0.4	768.39 ± 0.81	1277.6 ± 0.7	1.83 ± 0.01
313.15 K, x1 = 0.4999	771.11 ± 0.81	1276 ± 0.8	1.73 ± 0.01
313.15 K, x1 = 0.5999	774.09 ± 0.81	1274.5 ± 0.8	1.61 ± 0.01
313.15 K, x1 = 0.8006	781 ± 0.82	1271.3 ± 0.9	1.41 ± 0.01
313.15 K, x1 = 1	789.47 ± 0.82	1267.8 ± 1	1.21 ± 0.01
323.15 K, x1 = 0.2004	756.66 ± 0.81	1244.5 ± 0.7	1.7 ± 0.01
323.15 K, x1 = 0.4	761.38 ± 0.81	1241.4 ± 0.7	1.54 ± 0.01
323.15 K, x1 = 0.4999	764.07 ± 0.81	1239.7 ± 0.8	1.46 ± 0.01
323.15 K, x1 = 0.5999	766.99 ± 0.81	1237.9 ± 0.8	1.37 ± 0.01
323.15 K, x1 = 0.8006	773.8 ± 0.82	1234.3 ± 0.9	1.21 ± 0.01
323.15 K, x1 = 1	782.12 ± 0.82	1230.1 ± 1	1.04 ± 0.01
333.15 K, x1 = 0.2004	749.7 ± 0.81	1209.3 ± 0.7	1.44 ± 0.01
333.15 K, x1 = 0.4	754.35 ± 0.81	1206 ± 0.7	1.31 ± 0.01
333.15 K, x1 = 0.4999	757 ± 0.81	1204.2 ± 0.8	1.24 ± 0.01
333.15 K, x1 = 0.5999	759.88 ± 0.81	1202.3 ± 0.8	1.18 ± 0.01
333.15 K, x1 = 0.8006	766.57 ± 0.82	1198 ± 0.9	1.03 ± 0.01
333.15 K, x1 = 1	774.74 ± 0.82	1193.4 ± 1	0.895 ± 0.012
343.15 K, x1 = 0.2004	742.8 ± 0.8	–	1.24 ± 0.01
343.15 K, x1 = 0.4	747.4 ± 0.8	–	1.14 ± 0.01
343.15 K, x1 = 0.4999	749.9 ± 0.8	–	1.08 ± 0.01
343.15 K, x1 = 0.5999	752.9 ± 0.8	–	1.03 ± 0.01
343.15 K, x1 = 0.8006	759.4 ± 0.8	–	0.916 ± 0.012
343.15 K, x1 = 1	767.3 ± 0.8	–	0.799 ± 0.012
353.15 K, x1 = 0.2004	735.8 ± 0.8	–	1.07 ± 0.01
353.15 K, x1 = 0.4	740.3 ± 0.8	–	0.985 ± 0.012
353.15 K, x1 = 0.4999	742.8 ± 0.8	–	0.937 ± 0.012
353.15 K, x1 = 0.5999	745.7 ± 0.8	–	0.903 ± 0.012
353.15 K, x1 = 0.8006	752.2 ± 0.8	–	0.809 ± 0.012
353.15 K, x1 = 1	759.9 ± 0.8	–	0.709 ± 0.012
363.15 K, x1 = 0.2004	728.7 ± 0.8	–	0.955 ± 0.012
363.15 K, x1 = 0.4	733.2 ± 0.8	–	0.884 ± 0.012
363.15 K, x1 = 0.4999	735.6 ± 0.8	–	0.843 ± 0.012
363.15 K, x1 = 0.5999	738.5 ± 0.8	–	0.805 ± 0.012
363.15 K, x1 = 0.8006	744.8 ± 0.8	–	0.724 ± 0.012
363.15 K, x1 = 1	752.4 ± 0.8	–	0.637 ± 0.012
